According to article PMC8512764, “New 4-Aminoproline-Based Small Molecule Cyclopeptidomimetics as Potential Modulators of α4β1 Integrin” (Molecules, 2021):
Like-named read-outs stand apart in the source and are kept apart here. *1 amine or outer side, *2 acyl side, *3 side chain or, on linkers, in order; H or OH if unused. Where a SMILES comes first, the peptide text is derived from it. Bridges are numbered along the chain shown (N, C = ends). [ ]: non-standard residue; d: D form. The star is where a group is joined. ξ: configuration not given here. ξPro(4ξ-NH2) = O=C(C1CC(N[*:3])CN1[*:1])[*:2]; X1 = O=C(Cc1ccc(N[*:1])cc1)[*:2]; NH(2-Me-phenyl) = Cc1ccccc1N*; CO = O=C([*:1])[*:2]

Key:
α4β1 integrin = target: T1, α4β1 integrin (Homo sapiens, UniProt P05556+P13612); assay: Jurkat cell adhesion assay on VCAM-1-coated wells; type: cell-based; details: Jurkat cell adhesion to VCAM-1 (2 μg/mL); means ± SD, n = 3; tested 0.1 nM to 100 μM; read-out: EC50/IC50 (IC50 for compounds reducing cell adhesion)
T1 construct: Jurkat cells endogenously express α4β1 integrin; host or cells: Jurkat E6.1 cells
T1 sequence (P13612 34-1032): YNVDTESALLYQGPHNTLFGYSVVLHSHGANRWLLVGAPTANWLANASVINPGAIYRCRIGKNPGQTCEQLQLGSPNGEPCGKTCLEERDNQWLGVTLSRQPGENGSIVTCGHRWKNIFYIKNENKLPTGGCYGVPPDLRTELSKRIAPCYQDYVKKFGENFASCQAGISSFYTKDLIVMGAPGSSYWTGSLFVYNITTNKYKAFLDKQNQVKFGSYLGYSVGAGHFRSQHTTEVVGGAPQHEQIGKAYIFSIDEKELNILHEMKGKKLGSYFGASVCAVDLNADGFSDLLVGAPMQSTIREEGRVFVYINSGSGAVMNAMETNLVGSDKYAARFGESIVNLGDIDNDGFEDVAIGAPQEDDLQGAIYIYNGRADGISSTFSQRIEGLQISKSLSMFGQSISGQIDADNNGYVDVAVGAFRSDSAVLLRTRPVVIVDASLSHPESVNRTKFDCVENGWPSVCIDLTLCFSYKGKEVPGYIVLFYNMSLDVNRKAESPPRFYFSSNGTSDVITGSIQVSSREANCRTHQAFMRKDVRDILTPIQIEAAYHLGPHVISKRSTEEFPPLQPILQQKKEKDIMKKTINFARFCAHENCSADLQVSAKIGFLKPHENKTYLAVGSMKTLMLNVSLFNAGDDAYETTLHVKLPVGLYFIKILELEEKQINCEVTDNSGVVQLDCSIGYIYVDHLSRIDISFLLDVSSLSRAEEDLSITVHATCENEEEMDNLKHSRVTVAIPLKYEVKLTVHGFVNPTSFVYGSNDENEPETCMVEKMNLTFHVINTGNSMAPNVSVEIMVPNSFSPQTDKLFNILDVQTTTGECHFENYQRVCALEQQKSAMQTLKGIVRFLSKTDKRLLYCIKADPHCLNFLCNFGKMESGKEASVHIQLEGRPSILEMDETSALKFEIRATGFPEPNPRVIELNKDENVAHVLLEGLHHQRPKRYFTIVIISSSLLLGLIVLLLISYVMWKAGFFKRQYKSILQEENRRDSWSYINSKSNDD
T1 sequence (P05556 21-798): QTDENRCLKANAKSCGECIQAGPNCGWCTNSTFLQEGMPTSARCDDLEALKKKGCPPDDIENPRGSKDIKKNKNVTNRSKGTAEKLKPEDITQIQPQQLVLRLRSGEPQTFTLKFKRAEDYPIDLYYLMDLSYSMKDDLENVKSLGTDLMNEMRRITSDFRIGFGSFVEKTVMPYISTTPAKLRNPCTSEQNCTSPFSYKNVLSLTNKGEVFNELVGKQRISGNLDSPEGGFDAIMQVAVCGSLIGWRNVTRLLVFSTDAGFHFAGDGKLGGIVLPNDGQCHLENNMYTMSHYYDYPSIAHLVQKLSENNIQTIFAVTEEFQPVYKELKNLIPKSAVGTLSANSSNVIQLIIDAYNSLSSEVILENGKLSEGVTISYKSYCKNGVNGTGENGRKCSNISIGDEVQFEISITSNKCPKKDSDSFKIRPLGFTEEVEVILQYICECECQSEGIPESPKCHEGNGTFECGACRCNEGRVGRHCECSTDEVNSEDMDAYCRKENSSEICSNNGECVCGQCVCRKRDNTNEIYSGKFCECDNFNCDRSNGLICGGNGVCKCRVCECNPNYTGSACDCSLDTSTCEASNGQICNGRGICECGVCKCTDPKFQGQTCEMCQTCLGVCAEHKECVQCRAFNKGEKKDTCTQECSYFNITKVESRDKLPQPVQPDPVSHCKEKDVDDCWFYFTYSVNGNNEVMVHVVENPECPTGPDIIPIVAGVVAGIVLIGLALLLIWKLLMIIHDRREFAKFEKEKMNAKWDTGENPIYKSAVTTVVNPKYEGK
Method: To investigate the ability of the newly synthesized cyclopeptidomimetics 12–18 to recognize and bind α4β1 integrin, cell adhesion assays were performed on VCAM-1. The compounds were evaluated for their ability to interfere with α4β1 integrin-mediated cell adhesion by using Jurkat cells, which are known to constitutively express this integrin [46, 48, 49, 50, 51].
Jurkat E6.1 cells were purchased from American Type Culture Collection (ATCC, Rockville, MD, USA) and were routinely cultured in RPMI-1640 (LifeTechnologies, Milan, Italy) supplemented with 10% FBS (fetal bovine serum, Life Technologies) and 2 mM glutamine. Cells were kept at 37 °C under 5% CO2 humidified atmosphere. Jurkat cells are a widely used cell model to study potential agonist or antagonist ligands able to modulate integrin-mediated cell adhesion. Jurkat cells endogenously express α4β1 integrin [13].
The assays were performed as previously described. In brief, black 96 well plates were coated with VCAM-1 (2 μg/mL) overnight at 4 °C; then, non-specific hydrophobic binding sites were blocked with 1% BSA (bovine serum albumin, Sigma-Aldrich) in HBSS (Life Technologies) for 30 min at 37 °C. Jurkat cells were labelled with CellTracker green CMFDA (12.5 μM, Life Technolgies) and pre-incubated with various concentration (10^−4–10^−10 M) of each new cyclopeptidomimetic or with the vehicle (DMSO) for 30 min at 37 °C. Afterwards, Jurkat cells were plated on VCAM-1-coated wells and incubated for 30 min at 37 °C. Then, wells were washed three times with 1% BSA in HBSS and Jurkat cells were lysed with 0.5% Triton X-100 in PBS for 30 min at 4 °C. Green fluorescence (Ex485 nm/Em 535 nm) was measured in an EnSpire Multimode Plate Reader (PerkinElmer, Waltham, MA, USA). Experiments were performed in quadruplicate and repeated at least three times. The number of adherent cells was determined by comparison with a standard curve made with a known concentration of labelled Jurkat cells. Data analysis and IC50/EC50 values were calculated using GraphPad Prism 6.0 (GraphPad Software, San Diego, CA, USA).
The number of adherent cells was determined as described above.

[1] = head-to-tail lactamisation (amide bond) of side-chain-protected linear peptides; HATU (3 equiv)/HOAt (3 equiv)/2,4,6-collidine (3 equiv); linear peptide + collidine added dropwise to HATU/HOAt, 5 h, argon; details: the molecule shown is the open-chain precursor, DCM/DMF 15:1, 25.0 °C
[2] = amide bond, HATU/HOAt/collidine, DCM/DMF 15:1, 25.0 °C

Cc1ccccc1NC(=O)Nc1ccc(CC(=O)N2CC3CC2C(=O)NC(CC(C)C)C(=O)NC(CC(=O)O)C(=O)NC(C(C)C)C(=O)NCC(=O)N3)cc1 (stereo not drawn) [Compound 12, c[(MPUPA)Amp-Leu-Asp-Val-Gly]] ({NH(2-Me-phenyl)-CO}-[X1][ξPro(4ξ-NH2)]LDVG; lactam 2-C; configuration not given here)
IC50 (α4β1 integrin): > 100 µM

Cc1ccccc1NC(=O)Nc1ccc(CC(=O)N2CC3CC2C(=O)NC(CC(C)C)C(=O)NC(CCC(=O)O)C(=O)NC(C(C)C)C(=O)NCC(=O)N3)cc1 (stereo not drawn) [Compound 13, c[(MPUPA)Amp-Leu-Glu-Val-Gly]] ({NH(2-Me-phenyl)-CO}-[X1][ξPro(4ξ-NH2)]LEVG; lactam 2-C; configuration not given here)
IC50 (α4β1 integrin): > 100 µM

Cc1ccccc1NC(=O)Nc1ccc(CC(=O)N2CC3CC2C(=O)NC(CC(C)C)C(=O)NC(CC(=O)O)C(=O)NC(C(C)C)C(=O)N3)cc1 (stereo not drawn) [Compound 14, c[(MPUPA)Amp-Leu-Asp-Val]] ({NH(2-Me-phenyl)-CO}-[X1][ξPro(4ξ-NH2)]LDV; lactam 2-C; configuration not given here)
IC50 (α4β1 integrin): > 100 µM

Cc1ccccc1NC(=O)Nc1ccc(CC(=O)N2CC3CC2C(=O)NC(CC(C)C)C(=O)NC(CCC(=O)O)C(=O)NC(C(C)C)C(=O)N3)cc1 (stereo not drawn) [Compound 15, c[(MPUPA)Amp-Leu-Glu-Val]] ({NH(2-Me-phenyl)-CO}-[X1][ξPro(4ξ-NH2)]LEV; lactam 2-C; configuration not given here)
IC50 (α4β1 integrin): > 100 µM

Cc1ccccc1NC(=O)Nc1ccc(CC(=O)N2CC3CC2C(=O)NC(C(C)C)C(=O)NC(CCC(=O)O)C(=O)NC(CC(C)C)C(=O)N3)cc1 (stereo not drawn) [Compound 17, c[(MPUPA)Amp-Val-Glu-Leu]] ({NH(2-Me-phenyl)-CO}-[X1][ξPro(4ξ-NH2)]VEL; lactam 2-C; configuration not given here)
IC50 (α4β1 integrin): > 100 µM

Cc1ccccc1NC(=O)Nc1ccc(CC(=O)N2CC3CC2C(=O)NC(CCCNC(=N)N)C(=O)NCC(=O)NC(CC(=O)O)C(=O)N3)cc1 (stereo not drawn) [Compound 18, c[(MPUPA)Amp-Arg-Gly-Asp]] ({NH(2-Me-phenyl)-CO}-[X1][ξPro(4ξ-NH2)]RGD; lactam 2-C; configuration not given here)
IC50 (α4β1 integrin): > 100 µM

Cc1ccccc1NC(=O)Nc1ccc(CC(=O)N2C[C@@H](NC(=O)[C@@H](N)CC(=O)OC(C)(C)C)C[C@H]2C(=O)N[C@@H](CCCNC(=N)NS(=O)(=O)c2c(C)c(C)c3c(c2C)CCC(C)(C)O3)C(=O)NCC(=O)O)cc1 [H-Asp(tBu)-Amp(MPUPA)-Arg(Pmc)-Gly-OH]
ring closure, isolated yield ([1]; 14-membered ring): 43%

Cc1ccccc1NC(=O)Nc1ccc(CC(=O)N2C[C@@H]3C[C@H]2C(=O)N[C@@H](CCCNC(=N)NS(=O)(=O)c2c(C)c(C)c4c(c2C)CCC(C)(C)O4)C(=O)NCC(=O)N[C@@H](CC(=O)OC(C)(C)C)C(=O)N3)cc1 [H-Asp(tBu)-Amp(MPUPA)-Arg(Pmc)-Gly-OH]
ring closure, isolated yield ([2]; from H-Asp(tBu)-Amp(MPUPA)-Arg(Pmc)-Gly-OH, 14-membered ring, 0.52 mM): 43%

Cc1ccccc1NC(=O)Nc1ccc(CC(=O)N2C[C@@H](NC(=O)[C@@H](N)CC(C)C)C[C@H]2C(=O)N[C@H](C(=O)N[C@@H](CC(=O)OC(C)(C)C)C(=O)O)C(C)C)cc1 [H-Leu-Amp(MPUPA)-Val-Asp(tBu)-OH]
ring closure, isolated yield ([1]; 14-membered ring): 73%

Cc1ccccc1NC(=O)Nc1ccc(CC(=O)N2C[C@@H]3C[C@H]2C(=O)N[C@@H](C(C)C)C(=O)N[C@@H](CC(=O)OC(C)(C)C)C(=O)N[C@@H](CC(C)C)C(=O)N3)cc1 [H-Leu-Amp(MPUPA)-Val-Asp(tBu)-OH]
ring closure, isolated yield ([2]; from H-Leu-Amp(MPUPA)-Val-Asp(tBu)-OH, 14-membered ring, 0.78 mM): 73%

Cc1ccccc1NC(=O)Nc1ccc(CC(=O)N2C[C@@H](NC(=O)[C@@H](N)CC(C)C)C[C@H]2C(=O)N[C@H](C(=O)N[C@@H](CCC(=O)OC(C)(C)C)C(=O)O)C(C)C)cc1 [H-Leu-Amp(MPUPA)-Val-Glu(tBu)-OH]
ring closure, isolated yield ([1]; 14-membered ring): 73%

Cc1ccccc1NC(=O)Nc1ccc(CC(=O)N2C[C@@H]3C[C@H]2C(=O)N[C@@H](C(C)C)C(=O)N[C@@H](CCC(=O)OC(C)(C)C)C(=O)N[C@@H](CC(C)C)C(=O)N3)cc1 [H-Leu-Amp(MPUPA)-Val-Glu(tBu)-OH]
ring closure, isolated yield ([2]; from H-Leu-Amp(MPUPA)-Val-Glu(tBu)-OH, 14-membered ring, 0.74 mM): 73%

Cc1ccccc1NC(=O)Nc1ccc(CC(=O)N2C[C@@H](NC(=O)[C@@H](N)C(C)C)C[C@H]2C(=O)N[C@@H](CC(C)C)C(=O)N[C@@H](CC(=O)OC(C)(C)C)C(=O)O)cc1 [H-Val-Amp(MPUPA)-Leu-Asp(tBu)-OH]
ring closure, isolated yield ([1]; 14-membered ring): 69%

Cc1ccccc1NC(=O)Nc1ccc(CC(=O)N2C[C@@H]3C[C@H]2C(=O)N[C@@H](CC(C)C)C(=O)N[C@@H](CC(=O)OC(C)(C)C)C(=O)N[C@@H](C(C)C)C(=O)N3)cc1 [H-Val-Amp(MPUPA)-Leu-Asp(tBu)-OH]
ring closure, isolated yield ([2]; from H-Val-Amp(MPUPA)-Leu-Asp(tBu)-OH, 14-membered ring, 0.53 mM): 69%

Cc1ccccc1NC(=O)Nc1ccc(CC(=O)N2C[C@@H](NC(=O)[C@@H](N)C(C)C)C[C@H]2C(=O)N[C@@H](CC(C)C)C(=O)N[C@@H](CCC(=O)OC(C)(C)C)C(=O)O)cc1 [H-Val-Amp(MPUPA)-Leu-Glu(tBu)-OH]
ring closure, isolated yield ([1]; 14-membered ring): 65%

Cc1ccccc1NC(=O)Nc1ccc(CC(=O)N2C[C@@H]3C[C@H]2C(=O)N[C@@H](CC(C)C)C(=O)N[C@@H](CCC(=O)OC(C)(C)C)C(=O)N[C@@H](C(C)C)C(=O)N3)cc1 [H-Val-Amp(MPUPA)-Leu-Glu(tBu)-OH]
ring closure, isolated yield ([2]; from H-Val-Amp(MPUPA)-Leu-Glu(tBu)-OH, 14-membered ring, 0.76 mM): 65%

Cc1ccccc1NC(=O)Nc1ccc(CC(=O)N2C[C@@H](NC(=O)CNC(=O)[C@@H](N)C(C)C)C[C@H]2C(=O)N[C@@H](CC(C)C)C(=O)N[C@@H](CC(=O)OC(C)(C)C)C(=O)O)cc1 [H-Val-Gly-Amp(MPUPA)-Leu-Asp(tBu)-OH]
ring closure, isolated yield ([1]; 17-membered ring): 88%

Cc1ccccc1NC(=O)Nc1ccc(CC(=O)N2C[C@@H]3C[C@H]2C(=O)N[C@@H](CC(C)C)C(=O)N[C@@H](CC(=O)OC(C)(C)C)C(=O)N[C@@H](C(C)C)C(=O)NCC(=O)N3)cc1 [H-Val-Gly-Amp(MPUPA)-Leu-Asp(tBu)-OH]
ring closure, isolated yield ([2]; from H-Val-Gly-Amp(MPUPA)-Leu-Asp(tBu)-OH, 17-membered ring, 0.47 mM): 88%

Cc1ccccc1NC(=O)Nc1ccc(CC(=O)N2C[C@@H](NC(=O)CNC(=O)[C@@H](N)C(C)C)C[C@H]2C(=O)N[C@@H](CC(C)C)C(=O)N[C@@H](CCC(=O)OC(C)(C)C)C(=O)O)cc1 [H-Val-Gly-Amp(MPUPA)-Leu-Glu(tBu)-OH]
ring closure, isolated yield ([1]; 17-membered ring): 78%

Cc1ccccc1NC(=O)Nc1ccc(CC(=O)N2C[C@@H]3C[C@H]2C(=O)N[C@@H](CC(C)C)C(=O)N[C@@H](CCC(=O)OC(C)(C)C)C(=O)N[C@@H](C(C)C)C(=O)NCC(=O)N3)cc1 [H-Val-Gly-Amp(MPUPA)-Leu-Glu(tBu)-OH]
ring closure, isolated yield ([2]; from H-Val-Gly-Amp(MPUPA)-Leu-Glu(tBu)-OH, 17-membered ring, 0.48 mM): 78%
